{
  "source": "patent US20250353835A1",
  "about": "“N-TETRAZOLYL ARYL UREA-BASED DERIVATIVES, PREPARATION METHOD THEREFOR, AND USE THEREOF” (Hangzhou Yirui Pharmaceutical Technology Co., Ltd, priority 2022, published 2025)",
  "key": {"[1]": {"assay": "Pharmacokinetics in vivo in rats", "design": "species or system SD rats", "conditions": "for clearance / half-life / Vd / AUC / Cmax / bioavailability: SD, rat, plasma; for Vd: read-out: Apparent volume of distribution (Vss); for AUC: read-out: Area under the curve of plasma concentration-time (AUC); for Cmax: read-out: Peak concentration (Cmax)", "method": "1. […] At different time points after administration, blood samples were collected into EDTA blood sample collection tubes. Plasma was separated by centrifugation and stored at −20° C. for the analysis afterwards.\n2. Handling of blood samples and LC-MS/MS analysis: the standard curve and formulation and processing of quality control sample: The compound stock solution was diluted with 50% methanol in water to form a standard curve working solution containing each compound at a concentration of 40-20000 ng/mL and a quality control working solution of 120, 1200, and 16000 ng/mL. 47.5 μL of blank rat plasma were respectively taken, and added into 2.50 μL of standard curve working solution or the quality control working solution, to formulate the standard curve samples containing the compound at a concentration of 2.00-1000.00 ng/mL and the quality control samples having a concentration of […] and 800.00 ng/mL. 400 μL of acetonitrile (containing 5 ng/mL of verapamil as an internal standard) was added respectively. The samples were vortexed for 3 min, centrifuged at 20000 rcf, 4° C. for 15 min. The supernatant was taken for LC-MS/MS analysis.\n3. Treatment of the compound blood samples: 5 μL of plasma sample was taken, to which 95 μL of blank rat plasma was added, and 800 μL of acetonitrile (containing 5 ng/mL of verapamil as an internal standard) was added. The samples were vortexed for 3 min, centrifuged at 15000 rcf, 4° C. for 10 min. The supernatant was taken for LC-MS/MS analysis (chromatographic column: ACQUITY UPLC® BEH C18 2.1×50 mm 1.7 μm; mobile phase A: 0.1% formic acid in water; mobile phase B: acetonitrile; flow rate: […]).\n4. Analysis of the results: pharmacokinetic parameters were fit and calculated by WinNonlin software using statistical […] method, mainly including kinetic parameters Tmax, t1/2, Cmax, AUC0-t, AUC0∞, Cl, Vd, F, etc. The pharmacokinetic data were calculated and processed using Microsoft Excel, such as mean and standard deviation."}, "[2]": {"test_system": "rat model of acute lung injury", "assay": "Rat model of LPS-induced acute lung injury", "assay_type": "in vivo, Wistar rats", "design": "IL-6 (serum) / IL-6 (homogenate of lung tissue) / IL-6 (bronchoalveolar lavage fluid) / TNF-α (serum) / TNF-α (homogenate of lung tissue) / TNF-α (bronchoalveolar lavage fluid): unit not given here", "conditions": "ELISA; for expression levels of IL-6 and TNF-α (in words): rat model of acute lung injury; for IL-6 (bronchoalveolar lavage fluid) / IL-6 (homogenate of lung tissue) / IL-6 (serum) / TNF-α (bronchoalveolar lavage fluid) / TNF-α (homogenate of lung tissue) / TNF-α (serum): test drug 30 mg/kg i.p. 2 h before and 1 h after LPS, 12 h after modeling", "method": "1. Experimental aminals: SPF-grade male Wistar rats, weighed 180-220 g, 6-8 weeks old.\n3. Establishment of animal model: The rats were adaptively fed for one week. After the animals were anesthetized, 3 mg/kg LPS (B8) was injected intratracheally to prepare the rat model of acute lung injury.\n4. […] At 2 hours before modeling (before tracheal injection of LPS), the test drug (30 mg/kg, the vehicle was 0.3% DMSO in saline) was intraperitoneally injected. At 1 hour after modeling, the test drug was administered once again (at the same dose). At 12 hours after modeling, the animals were sacrificed, and the samples were collected for the tests of various indexes. […]\n5.2 ELISA method: 5 rats per group. The serum, alveolar lavage fluid, and tissue homogenate of one lung of each of the rats were subjected to ELISA assay to determine the TNF-α and IL-6 levels."}, "[3]": {"assay": "Intraocular and retinal drug concentration in rats after eye drops (HPLC)", "assay_type": "in vivo", "conditions": "both sexes, SD, rat, topical, 10 μL of 2% solution per eye, twice a day for 7 days, 2% eye drops twice a day; for concentration at 1 h after the second eye drop on Day 7: 1 h after administration", "excerpt": "2.1 Experimental aminals: SPF grade male SD rats, weighed 180-200 g, were used and adaptively fed for one week.\n2.2 Drugs and reagents: Compound 71 and Compound 8; sodium chloride injection (Guangxi Yuyuan Pharmaceutical Co., Ltd.); sterile filter having 0.22 μm pore size (Millex).\n2.3 Experimental animal grouping: the animals were randomly divided into 3 groups (6 rats per group) of a negative control group (normal saline), a Compound 71 group and a Compound 8 group.\n2.4 Administration method and sampling: 2% Compound (10 μl) dissolved in normal saline (after filtration) was dropped into the surface of each rat's eye with a pipette for 10 s. The eye drop was applied twice a day for a total of 7 days. Samples were taken at 1 and 16 hours after the second administration on Day 7 of administration to determine the ocular distribution concentration of the drug.\n(§1) The first batch of samples: 1 hour after the second eye drop on Day 7: 3 rats (2 males and 1 female) were taken from each group. The bulbus oculi were removed, and were thoroughly rinsed for 3 times with normal saline using a pipette. The washing solution was quickly dried with a qualitative filter paper. The cornea, vitreous body and retina were separated under a stereomicroscope, and frozen at −80° C. for subsequent measurement.\nas §1, with “second” for “first”, “On the morning of Day 8, i.e., at 16 hours” for “1 hour”, “7: the remaining” for “7:”, “(1 male” for “(2 males”, “2 females)” for “1 female)”, “detection.” for “measurement.”\n2.7.3 Results of HPLC measurement of drug content in eye tissue: Under the selected chromatographic conditions for analysis, drug impurities were well separated. The chromatograms for a sample of standard solution, a sample of blank homogenate, a sample of blank homogenate added with Compound 71 or Compound 8, and a sample of retinal homogenate samples were compared. […] Under the selected HPLC measurement conditions, the average recovery rates for two compounds under test were both above 90%. […] The precision can meet the measurement standard. As shown by the accuracy results, the accuracy for all of the high, medium and low concentration retinal spiked quality control samples (QC) within the drug curve range was higher than 95%."}, "[4]": {"conditions": "3 mg/kg oral administration in rats (Table 2A)"}, "[5]": {"conditions": "3 mg/kg intravenous injection in rats"}, "[6]": {"conditions": "cornea, read-out: Content of test compound in Cornea"}, "[7]": {"conditions": "cornea, 16 h after administration, read-out: Content of test compound in Cornea"}, "[8]": {"conditions": "retina, read-out: Content of test compound in Retina"}, "[9]": {"conditions": "retina, 16 h after administration, read-out: Content of test compound in Retina"}, "[10]": {"conditions": "vitreous body, read-out: Content of test compound in Vitreous body"}, "[11]": {"conditions": "vitreous body, 16 hours after administration, read-out: Content of test compound in Vitreous body"}},
  "note": "Read-outs that look alike come from different tables or passages of the source.",
  "data": [
    {"smiles": "CCOc1ccc(-c2c(F)cc(NC(=O)N3CCC(C(C)(C)C)CC3)cc2-c2nn[nH]n2)cn1", "note": "[Compound 8, 4-(tert-butyl)-N-(4-(6-ethoxypyrid-3-yl)-3-fluoro-5-(2H-tetrazol-5-yl)phenyl)piperidine-1-carboxamide]", "values": [
      {"measurement": "Peak time", "setting": "[1]; [4]", "result": 0.78, "unit": "h"},
      {"measurement": "clearance", "setting": "[1]; [5]", "result": 9.87, "unit": "mL/min/kg"},
      {"measurement": "half-life", "setting": "[1]; [5]", "result": 0.56, "unit": "h"},
      {"measurement": "Vd", "setting": "[1]; [5]", "result": 0.328, "unit": "L/kg"},
      {"measurement": "AUC", "setting": "[1]; [5]", "result": 5090, "unit": "ng·h/mL"},
      {"measurement": "Cmax", "setting": "[1]; [5]", "result": 16400, "unit": "ng/mL"},
      {"measurement": "bioavailability", "setting": "[1]; [4]", "result": 6.1, "unit": "%"},
      {"measurement": "half-life", "setting": "[1]; [4]", "result": 3.37, "unit": "h"},
      {"measurement": "AUC", "setting": "[1]; [4]", "result": 3130, "unit": "ng·h/mL"},
      {"measurement": "Cmax", "setting": "[1]; [4]", "result": 1390, "unit": "ng/mL"},
      {"measurement": "expression levels of IL-6 and TNF-α (in words)", "setting": "[2]", "result": "effectively reduce"},
      {"measurement": "IL-6 (bronchoalveolar lavage fluid)", "setting": "[2]", "result": "171.55 ± 81.93"},
      {"measurement": "IL-6 (homogenate of lung tissue)", "setting": "[2]", "result": "250.10 ± 70.26"},
      {"measurement": "IL-6 (serum)", "setting": "[2]", "result": "470.76 ± 151.60"},
      {"measurement": "TNF-α (bronchoalveolar lavage fluid)", "setting": "[2]", "result": "26.72 ± 10.35"},
      {"measurement": "TNF-α (homogenate of lung tissue)", "setting": "[2]", "result": "35.74 ± 11.82"},
      {"measurement": "TNF-α (serum)", "setting": "[2]", "result": "94.89 ± 28.07"},
      {"measurement": "concentration at 1 h after the second eye drop on Day 7", "setting": "[3]; [6]", "result": "101000 ± 28200", "unit": "ng/g"},
      {"measurement": "concentration at 16 h after the second eye drop on Day 7", "setting": "[3]; [7]", "result": "40700 ± 18800", "unit": "ng/g"},
      {"measurement": "concentration at 1 h after the second eye drop on Day 7", "setting": "[3]; [8]", "result": "55000 ± 6910", "unit": "ng/g"},
      {"measurement": "concentration at 16 h after the second eye drop on Day 7", "setting": "[3]; [9]", "result": "15800 ± 8410", "unit": "ng/g"},
      {"measurement": "concentration at 1 h after the second eye drop on Day 7", "setting": "[3]; [10]", "result": "18200 ± 4650", "unit": "ng/g"},
      {"measurement": "concentration at 16 h after the second eye drop on Day 7", "setting": "[3]; [11]", "result": "10100 ± 2670", "unit": "ng/g"}
    ]},
    {"smiles": "CCOc1ccc(-c2ccc(NC(=O)N[C@H]3CC[C@H](C)CC3)cc2-c2nn[nH]n2)cn1", "note": "[Compound 71, 1-(4-(6-ethoxypyrid-3-yl)-3-(2H-tetrazol-5-yl)phenyl)-3-((trans)-4-methylcyclohexyl)urea]", "values": [
      {"measurement": "Peak time", "setting": "[1]; [4]", "result": 2.72, "unit": "h"},
      {"measurement": "clearance", "setting": "[1]; [5]", "result": 2.42, "unit": "mL/min/kg"},
      {"measurement": "half-life", "setting": "[1]; [5]", "result": 0.93, "unit": "h"},
      {"measurement": "Vd", "setting": "[1]; [5]", "result": 0.156, "unit": "L/kg"},
      {"measurement": "AUC", "setting": "[1]; [5]", "result": 20700, "unit": "ng·h/mL"},
      {"measurement": "Cmax", "setting": "[1]; [5]", "result": 37500, "unit": "ng/mL"},
      {"measurement": "bioavailability", "setting": "[1]; [4]", "result": 3.6, "unit": "%"},
      {"measurement": "half-life", "setting": "[1]; [4]", "result": 3.63, "unit": "h"},
      {"measurement": "AUC", "setting": "[1]; [4]", "result": 7480, "unit": "ng·h/mL"},
      {"measurement": "Cmax", "setting": "[1]; [4]", "result": 914, "unit": "ng/mL"},
      {"measurement": "expression levels of IL-6 and TNF-α (in words)", "setting": "[2]", "result": "effectively reduce"},
      {"measurement": "IL-6 (bronchoalveolar lavage fluid)", "setting": "[2]", "result": "184.29 ± 75.57"},
      {"measurement": "IL-6 (homogenate of lung tissue)", "setting": "[2]", "result": "236.26 ± 84.91"},
      {"measurement": "IL-6 (serum)", "setting": "[2]", "result": "473.14 ± 134.88"},
      {"measurement": "TNF-α (bronchoalveolar lavage fluid)", "setting": "[2]", "result": "25.73 ± 11.35"},
      {"measurement": "TNF-α (homogenate of lung tissue)", "setting": "[2]", "result": "37.03 ± 10.88"},
      {"measurement": "TNF-α (serum)", "setting": "[2]", "result": "101.63 ± 37.40"},
      {"measurement": "concentration at 1 h after the second eye drop on Day 7", "setting": "[3]; [6]", "result": "93100 ± 16900", "unit": "ng/g"},
      {"measurement": "concentration at 16 h after the second eye drop on Day 7", "setting": "[3]; [7]", "result": "43500 ± 6590", "unit": "ng/g"},
      {"measurement": "concentration at 1 h after the second eye drop on Day 7", "setting": "[3]; [8]", "result": "64800 ± 18300", "unit": "ng/g"},
      {"measurement": "concentration at 16 h after the second eye drop on Day 7", "setting": "[3]; [9]", "result": "6070 ± 3060", "unit": "ng/g"},
      {"measurement": "concentration at 1 h after the second eye drop on Day 7", "setting": "[3]; [10]", "result": "24200 ± 7070", "unit": "ng/g"},
      {"measurement": "concentration at 16 h after the second eye drop on Day 7", "setting": "[3]; [11]", "result": "12700 ± 3490", "unit": "ng/g"}
    ]}
  ]
}
